{
  "source": "patent US7531500B2",
  "about": "“Preventing airway mucus production by administration of EGF-R antagonists” (The Regents of the University of California, priority 1998, dated 2009)",
  "key": {"pathogen-free rats [1]": {"tested_on": "pathogen-free rats", "test": "IL-13-induced goblet cell metaplasia in rat airways", "assay_type": "in vivo", "conditions": "pretreatment", "protocol": "Animals were anesthetized with pentobarbital [Nembutal sodium, 50 mg/kg, intraperitoneally (ip), Abbott Laboratories, North Chicago, Ill.] and allowed to breathe spontaneously. Vehicle (phosphate buffer solution, PBS) or IL-13 was instilled intratracheally via a 20-gauge Angiocath catheter (Beckton Dickinson, Sandy, Utah) through the mouth, while the laryngeal area was visualized using a high-intensity illuminator (FiberLite; Dolan Jenner Industries, Inc., Lawrence, Mass.). The […] tissues were examined 48 hours after instillation of IL-13. Various concentrations of IL-13 (recombinant murine IL-13; 5, 50, 100, and 500 ng/rat, R&D systems, Minneapolis, Minn.) were instilled into the trachea in […]. Sterile PBS (200 μl) was instilled into the trachea as controls. For examination of the relationship between IL-13-induced GC metaplasia and activation of EGFR, animals were pretreated 1 d before instillation of IL-13 and daily thereafter with a selective EGFR tyrosine kinase inhibitor (BIBX 1522; 1-30 mg/kg/day, ip; Boehringer Ingelheim, Ingelheim, Germany). Animals were euthanized 48 hours after instillation of IL-13. In preliminary studies, we noted that IL-13 causes leukocyte recruitment into the airways. We hypothesized that leukocyte recruitment results from IL-13-induced chemoattractant release from epithelium, and that this recruitment is involved in the IL-13-induced EGFR cascade leading to GC metaplasia. Groups of animals were euthanized 4, 8, 16, 24, and 48 hours after instillation of IL-13 (500 ng), and leukocytes were counted in airway tissue. […] Sigma chemical Co., St Louis, Mo.] or with a blocking antibody to interleukin-8 (IL-BAb; rabbit anti-human IL-8 antibody; Biosource, Camarillo, Calif.). […] In another series of studies, we instilled IL-8 Ab (10 μg/rat) intratracheally, along with IL-13; we repeated the instillation of anti-human IL-8 blocking antibody at 12 hour intervals until the animals were euthanized. Animals were euthanized with a lethal dose of pentobarbital (Nembutal sodium, 200 mg/kg, ip, Abbott Laboratories, North Chicago, Ill.), and the systemic circulation was perfused with 1% paraformaldehyde in Diethylpyrocarbonate (DEPC, Sigma chemical Co., St Louis, Mo.)-treated PBS via the left ventricle. For frozen sections, […] tissues were removed, placed in 4% paraformaldehyde overnight, and then placed in 30% sucrose for cryoprotection. The tissues were embedded in optimal cutting temperature (OCT, […]., Inc., Torrance, Calif.) compound. For plastic or paraffin sections, tissues were placed in 4% paraformaldehyde overnight, dehydrated with ethanol, and embedded in JB-4 plus monomer solution A (Polysclences, Inc., Warrington, Pa.) or in paraffin. The embedded tissues were cut as cross sections 4 μm thick and placed on glass slides. In all studies, the carina was examined to obtain consistent sampling. We measured AB/PAS-positive areas and total epithelial area, and we expressed the results as the percentage of AB/PAS area to total epithelial area. The analysis was performed with the public domain NIH IMAGE program (developed at the U.S. National Institutes of Health and available by anonymous FTP from zippy.nimh.gov. or floppy disk from the National Technical Information Service, Springfield, Va., part number PB95-500195GEI). […] For immunohistochemical localization of […], we used mouse anti-human IL-8 antibody (1:20; Biosource, Camarillo, Calif.). The sections were then incubated with biotinylated horse anti-mouse IgG (Vector Laboratories, Burlingame, Calif.) at 1:200 dilution for 1 hour at room temperature. Bound antibody was visualized according to standard protocols for avidin-biotin-peroxidase complex method. The measurement of MUC5AC protein also utilized the same method used for quantitative measurement of GC metaplasia in the epithelium. Animals were euthanized 4, 8, 16, 24, and 48 hours after instillation of IL-13 (500 ng), and leukocytes were counted in airway tissue. […]"}, "pathogen-free rats [2]": {"tested_on": "pathogen-free rats", "test": "Agarose plug-induced goblet cell metaplasia in pathogen-free rats", "assay_type": "in vivo, rat", "protocol": "Protocol of experiments. We studied pathogen-free rats, because they normally have few goblet cells in airways. The animals were anesthetized with methohexital sodium (Brevital, 25 mg/kg, i.p.). The trachea was exposed aseptically with a midline cervical incision, and agarose plugs were instilled into a bronchus via a 20 gauge Angiocath (Becton Dikinson, Sandy, Utah) connected to polyethylene tubing (PE 90, internal diameter 0.86 mm and outer diameter 1.27 mm, Clay Adams, Parsippany, N.Y.) threaded into the incised trachea. The polyethylene tube was bent at a 30° angle to allow selective instillation into the right bronchus. After instillation, the incision was closed with a suture.\nTo evaluate the role of EGF-R on agarose plug-induced goblet cell metaplasia, animals were treated with BIBX1522 (80 mg/kg, i.p.) 1 h before instillation of the agarose plugs and repeated daily (40 mg/kg, i.p., bid). Animals were euthanized 24, 48 or 72 h after instillation of the agarose plugs.\nThe first treatment (100 μl in 0.2 ml saline, i.p.) was given 1 h before the instillation of agarose plugs, and i.p. injections were repeated daily.\nTo study the effect of neutrophils on agarose plug-induced goblet cell metaplasia, rats were pretreated with cyclophosphamide (an inhibitor of bone marrow leukocytes) or with a combination of cyclophosphamide plus NPC 15669. Cyclophosphnamide (100 mg/kg, i.p.) was given 5 d before instillation of agarose plugs, and a second injection of cyclophosphamide (50 mg/kg, i.p.) was given 1 d before instillation of plugs. In studies with NPC 15669, the drug (10 mg/kg, i.p.) was injected 1 h before instillation of agarose plugs, and then daily for 3 d thereafter.\nTissue preparation. At various times after agarose plug instillation, rats were anesthetized with sodium pentobarbital (65 mg/kg, i.p.), the systemic circulation was perfused with 1% paraformaldehyde in diethyl pyrocarbonate-treated PBS at a pressure of 120 mmHg. The right lung was removed, and the right caudal lobe was used for histology. For frozen sections, tissues were removed and placed in 4% paraformaldehyde for 1 h and then replaced in 30% sucrose for cryoprotection overnight. The tissues were embedded in O.C.T. compound (Sakura Finetek U.S.A., Inc., Torrance, Calif.). For methacrylate sections, the tissues were placed in 4% paraformaidehyde for 24 h and then dehydrated with graded concentrations of ethanol and embedded in methacrylate JB-4 (Polysciences, Inc., Warrington, Pa.). Tissue sections (4 μm thick) were stained with Alcian blue/PAS and counterstained with hematoxylin.\nMorphoometric analysis of bronchial epithelium. The percentage of Alcian blue/PAS-stained area of mucous glycoconjugates in the epithelium was determined using a semi-automatic image analysis system according to previously published methods. The area of epithelium and Alcian blue/PAS-stained mucous conjugates within the epithelium was manually circumscribed and analyzed using the NIH Image program (developed at the U.S. National Institutes of health and available from the internet by ananymous FTP or from a floppy disk from the National Technical Information Service, Springfield, Va.; part number PB95-500195GEI). The data are expressed as the percentage of the total epithelial area occupied by Alcian blue/PAS stain. […] The percentage of denuded epithelium was determined by calculating the ratio of the length of denuded epithelium to the total epithelial length.\nIdentification of cell types in methacrylate sections and cell analysis. The total number of epithelial cells was determined by counting epithelial cell nuclei over 2 mm of the basal lamina with an oil immersion objective lens (×1000 magnification). The linear length of the basal lamina under each analyzed region of epithelium was determined by tracing the contour of the digitalized image of the basal lamina. The epithelia; cells were identified as described previously."}},
  "data": [
    {"smiles": "O=P1(N(CCCl)CCCl)NCCCO1", "note": "(stereo not shown) [cyclophosphamide]", "values": [
      {"measurement": "IL-13-induced TNFα expression", "setting": "pathogen-free rats [1]", "value": "prevented"},
      {"measurement": "IL-13-induced leukocyte recruitment into airways", "setting": "pathogen-free rats [1]", "value": "inhibited"},
      {"measurement": "IL-13-induced mucin production", "setting": "pathogen-free rats [1]", "value": "prevented"},
      {"measurement": "neutrophil count in venous blood", "setting": "pathogen-free rats [2]; after cyclophosphamide 100 mg/kg then 50 mg/kg i.p., n=5", "value": "1.8±0.5", "unit": "%"},
      {"measurement": "agarose plug-induced EGF-R protein expression", "setting": "pathogen-free rats [2]; rat, in vivo", "value": "inhibited"},
      {"measurement": "agarose plug-induced goblet cell metaplasia (Alcian blue/PAS-positively stained cells)", "setting": "pathogen-free rats [2]; rat, in vivo", "value": "inhibited"},
      {"measurement": "macrophage recruitment after agarose plugs", "setting": "pathogen-free rats [2]; rat, in vivo", "value": "did not inhibit"},
      {"measurement": "plug-induced neutrophil recruitment in BAL", "setting": "pathogen-free rats [2]; rat, in vivo", "value": "inhibited"},
      {"measurement": "number of neutrophils in the airway lumen", "setting": "pathogen-free rats [2]; treated rats with plugs, 24 h", "value": "2.6±0.3 /mm of basal lamina"},
      {"measurement": "number of neutrophils in the epithelium", "setting": "pathogen-free rats [2]; treated rats with plugs, 24 h", "value": "0.8±0.2 /mm"}
    ]}
  ]
}
